Five compounds from US5212157A, “Enzyme inhibitors” (Bio-Mega, Inc., priority 1989, dated 1993) can be followed below.

A word on the IC50: it is the point on the concentration scale where inhibition reaches its midpoint.

Counter-ions that a name gives are not always drawn. Numbered stars: 1 amine (or outer) side, 2 acyl side, 3 side chain; on linkers, the order of the positions; unused ones are H or OH. Square brackets hold non-standard residues; d marks the D form. Peptide text beside a SMILES is read from it. Ahppa(3S,4S) = O=C(C[C@H](O)[C@H](Cc1ccccc1)N[*:1])[*:2]; ACHPA = O=C(C[C@H](O)[C@H](CC1CCCCC1)N[*:1])[*:2]; Tic = O=C(O)[C@@H]1Cc2ccccc2CN1

This assay concerns the target T1, HIV protease (Human immunodeficiency virus type 1 group M subtype B, UniProt P04585).
T1 construct: HIV protease was expressed in E. coli and purified to ca. 50% purity; made in house; host or cells: E. coli
Put plainly: Recombinant HIV Protease HPLC Assay. In kind it is biochemical. The settings on record: recombinant HIV protease expressed in E. coli; substrate VSFNFPQITL-NH2; pH 6 buffer; 37° C. for 1 h; HPLC quantification. An excerpt: The procedure is based on the capacity of the test compound to inhibit enzymatic cleavage by HIV protease of a decapeptide (the substrate) having an amino acid sequence which includes a known HIV protease cleavage site of the HIV polyprotein; see H. G. Krausslich et al., Proc. Natl. Acad. Sci. USA, 86, 807 (1989). Details of this assay together with the results obtained for exemplified peptides of formula 1 are described in the examples hereinafter.
Recombinant HIV Protease HPLC Assay
Enzyme: HIV protease was expressed in E. coli and purified to ca. 50% purity according to the procedure described by H.-G. Krausslich et al., Proc. Natl. Acad. Sci. U.S.A., 86, 807 (1989). The enzyme was stored as 10 μL aliquots at -70° C. The aliquots were diluted to 1/10th of the original concentration with buffer prior to use (enzyme working solution).
Substrate: VSFNFPQITL-NH2, MW 1164, see Krausslich et al., supra, was used as substrate. The substrate was made into 10 mM stock in DMSO and stored at -20° C. Prior to use, the stock was diluted with buffer to give a 400 μM solution substrate working solution.
Buffer: 2-(4-Morpholino)ethanesulfonic acid (50 mM), NaCl (25 mM) and EDTA (5 mM) was dissolved in distilled H2 O (90 mL) and the solution was adjusted to pH6 with concentrated aqueous NaOH. The latter solution was diluted to 100 mL with H2 O to give the buffer.
Procedure: (1) The test compound was dissolved in DMSO to give a solution having 40× the final concentration of the test compound in the assay mixture (see step 2) so that the amount of DMSO in the assay mixture was 5% (v,v) or less. (2) The assay mixture was prepared by mixing 10 μL of the substrate working solution, 0.5 μL of the solution of the test compound in DMSO from step 1, and 10 μL of the enzyme working solution. (3) The assay mixture was incubated at 37° C. for 1h. (4) The reaction was quenched by adding 100 μL of 2% aqueous TFA. (5) The substrate and products (i.e. VSFNF and PQITL-NH2) were separated by subjecting 100 μL of the quenched assay mixture to HPLC using Nucleosil ® C18 column with a 26-min linear gradient at 1 mL/min from 11% to 70% acetonitrile in H2 O with 0.05% aqueous TFA. Elution was monitored at 210 nm. (6) A control which was the assay mixture without the test compound, was subjected simultaneously to steps 3 to 5.
Inhibition Studies: Cleavage products and remaining parent substrate were quantified by either peak height or by integration of the appropriate HPLC peaks. Substrate conversion was calculated using the following relationship: [formula] Enzyme inhibition of the test compound was calculated as follows: [formula]
The concentration of the test compound which causes a 50% inhibition of the HIV-protease, i.e. the IC50, was determined as follows: The percent inhibition of the enzyme was determined for a minimum of three different concentrations of the test compound. Thereafter, the IC50 was determined graphically by plotting the percent inhibition of the substrate against the concentration of the test compound.
With “THIQ-Val-Cha.psi.[CH2 NH]Leu-Leu-Phe-NH2.HCl [Example 20]”, the IC50 stood at 80 nM.
Then “N-[N-[N-[N-[3-(1,2,3,4-Tetrahydroisoquinolyl)carbonyl]-L-alanyl]-4(S)-amino-3(S)-hydroxy-5-cyclohexylpentanoyl]-L-leucyl]-L-phenylalaninamide Hydrochloride [Example 1]”, with 90 nM; and “THIQ-Val-ACHPA-Ala-Phe-NH2.HCl [Example 7]”, with 17 nM.
Then `CC(C)C[C@H](NC(=O)C[C@H](O)[C@H](Cc1ccccc1)NC(=O)[C@@H](NC(=O)[C@@H]1Cc2ccccc2CN1)C(C)C)C(=O)N[C@@H](Cc1ccccc1)C(N)=O` [Example 16, THIQ-Val-AHPPA-Leu-Phe-NH2.HCl] (H-[Tic]V[Ahppa(3S,4S)]LF-NH2), with 25 nM.
As for `CC(C)C[C@H](NC(=O)C[C@H](O)[C@H](CC1CCCCC1)NC(=O)[C@H](C)NC(=O)[C@@H]1Cc2ccccc2CN1)C(=O)N[C@@H](Cc1ccccc1)C(=O)O` [Example 14, THIQ-Ala-ACHPA-Leu-Phe-OH.HCl] (H-[Tic]A[ACHPA]LF-OH), the figure is 200 nM.
